Source: patent publication EP4711368A1 (priority 2023, dated 2024)
Where two headings read alike, the source gives them in different places.

Columns and labels:
SD rats [1] = test: animal or person; format: in vivo; settings: iv; for Minimal effective anesthetic dose / Onset time / Righting feflex duration / Sedation Duration: rat, in vivo; for minimal effective dose: Rattus norvegicus
SD rats [2] = settings: rat, in vivo; for MLD: iv
[3] = read-out: Minimal effective anesthetic dose
[4] = read-out: Minimal effective analgesic dose

| SMILES | Minimal effective anesthetic dose (SD rats [1]) [mg/kg] | Onset time (SD rats [1]) [min] | Righting feflex duration (SD rats [1]) [min] | Sedation Duration (SD rats [1]) [min] | TI (SD rats [2]) | MLD (SD rats [2]) [mg/kg] | minimal effective dose (SD rats [1]; [3]) [mg/kg] | TI (SD rats [2]; SD) | MLD (SD rats [2]; SD) [mg/kg] | minimal effective dose (SD rats [1]; [4]) [mg/kg] |
| --- | --- | --- | --- | --- | --- | --- | --- | --- | --- | --- |
| C=CC(=O)OCCC1N=C(c2ccccn2)c2cc(Br)ccc2-n2c(C)cnc21 (stereo not drawn) [Compound 151] | 1.8 | 0.2 to 3.4 | 3.7 to 38.6 | 19.0 to 68.4 | 16.3 | 29.4 |  |  |  |  |
| CC(C)C(=O)OCN1N=C(c2ccccn2)c2cc(Br)ccc2N(C)C1=O [Compound 287] |  | 0.32 to 0.43 | 0.63 to 7.53 | 44.20 to 46.25 |  |  | 10 | 3 | 30 |  |
| CCC(C)(C)OC(=O)CN1N=C(c2ccccn2)c2cc(Br)ccc2N(C)C1=O [Compound 255] |  | 0.53 to 0.97 | 12.27 to 13.62 | 43.43 to 66.14 |  |  | 15 | 2 | 30 | 20 |
| CCOC(=O)OCCC1N=C(c2ccccn2)c2cc(Br)ccc2-n2c(C)cnc21 (stereo not drawn) [Compound 154] | 3.8 | 0.5 to 0.9 | 1.3 to 6.2 | 14.1 to 17.0 | 2.0 | 7.5 |  |  |  |  |
| Cc1cnc2n1-c1ccc(Br)cc1C(c1ccccn1)=NN2CC(=O)OC1COC1 [Compound 311] |  | 0.17 to 0.48 | 2.28 to 12.30 | 25.88 to 54.23 |  |  | 5 | 6 | 30 | 10 |
| CC(C)n1nnc(CCN2N=C(c3ccccn3)c3cc(Br)ccc3N(C)C2=O)n1 [Compound 267] |  | 0.72 | 0.28 | 12.33 |  |  | 20 | 2 | 40 |  |
| Cc1cnc2n1-c1ccc(Br)cc1C(c1ccccn1)=NC2CCOC(=O)N(C)C (stereo not drawn) [Compound 156] | 1.8 | 0.2 to 0.4 | 1.7 to 31.9 | 9.3 to 91.5 | 11.1 | 20 |  |  |  |  |
| Cc1cnc2n1-c1ccc(Br)cc1C(c1ccccn1)=NC2CCOC(=O)C(C)C (stereo not drawn) [Compound 146] | 1.0 | 0.3 to 0.6 | 3.7 to 9.7 | 17.3 to 27.1 | 5.0 | 5 |  |  |  |  |
| CON(C)C(=O)OCN1N=C(c2ccccn2)c2cc(Br)ccc2N(C)C1=O [Compound 294] |  | 0.52 to 0.55 | 3.35 to 6.47 | 28.68 to 40.58 |  |  | 15 | >1.3 | >20 |  |
| CN1C(=O)N(CCOC(=O)CCl)N=C(c2ccccn2)c2cc(Br)ccc21 [Compound 300] |  | 0.25 | 4.67 | 76.20 |  |  | 40 | >1 | >40 |  |
| CCC(C)(C)OC(=O)CN1N=C(c2ccccn2)c2cc(Br)ccc2-n2c(C)cnc21 [Compound 313] |  | 0.53 to 0.97 | 12.27 to 13.62 | 43.43 to 66.15 |  |  | 15 | 2 | 30 | 20 |
